Assay [1] in a line: Cytotoxicity against human MCF10A cells after 48 hrs by WST1 assay. It counts as cell-based. As to conditions: MCF-10A.
For assay [2], the system named is Candida. The experiment in a line: Antifungal activity against Candida sp. clinical isolate 12810 derived from blood by microbroth dilution method. It counts as functional. (In broth dilution the organism is exposed to a series of concentrations in liquid medium.)
In assay [3] the test system is Candida. Put plainly: Antifungal activity against Candida sp. clinical isolate 12485 derived from urine by microbroth dilution method. It counts as functional. The following applies: clinical isolate 12485, Urine.
Assay [4] relates to Candida. The experiment in a line: Antifungal activity against Candida sp. clinical isolate 12341 derived from urine by microbroth dilution method. The class given is functional. As to conditions: clinical isolate 12341, Urine.
The test system of assay [5] is Candida. Put plainly: Antifungal activity against Candida sp. clinical isolate 300 derived from urine by microbroth dilution method. As to conditions: clinical isolate 300, Urine. It counts as functional.
The subject of assay [6] is Candida. The experiment in a line: Antifungal activity against Candida sp. clinical isolate 178 derived from high vaginal swabs by microbroth dilution method. The class given is functional.
Assay [7] relates to Candida. The experiment in a line: Antifungal activity against Candida sp. clinical isolate 11972 derived from high vaginal swabs by microbroth dilution method. The class given is functional.
Another assay has as its system Candida albicans. The experiment in a line: Antifungal activity against Candida albicans ATCC 66027 by microbroth dilution method. The class given is functional.
Assay [8] relates to Candida. Put plainly: Antifungal activity against Candida sp. clinical isolate 13184 derived from high vaginal swabs by microbroth dilution method. It counts as functional.
A further assay relates to Candida parapsilosis. Put plainly: Antifungal activity against Candida parapsilosis ATCC 22019 by microbroth dilution method. The class given is functional. The following applies: Lodderomyces parapsilosis.
For a further assay, the system named is Candida tropicalis. Put plainly: Antifungal activity against Candida tropicalis ATCC 66029 by microbroth dilution method. It counts as functional.

The structures appear in SMILES notation. In brackets after ≈: the same amount, converted by molar mass.

Broadly, the IC50 is the midpoint of a concentration-inhibition curve. Higher therefore signals weaker potency in that assay. As usually defined, the MIC is the least concentration at which growth counts as inhibited. `O=C(NNC(=S)Nc1ccc(S(=O)(=O)Nc2ncccn2)cc1)c1ccncc1` returned an IC50 in assay [1] greater than 300 µM. In addition, the MIC against Candida [2], against Candida [3], against Candida [4], in the assay with Candida [5], against Candida [6] and against Candida [7] was greater than 50 mg/L in each case. In addition, the MIC in the assay on Candida albicans, against Candida [8], in the assay with Candida parapsilosis and against Candida tropicalis was greater than 50 mg/L in each case.
With `Cc1cccc(NC(=S)NNC(=O)c2ccncc2)c1`, in assay [1], the IC50 was greater than 300 µM. Besides, the MIC with Candida [2], against Candida [3], against Candida [4], with Candida [5], against Candida [6] and against Candida [7] was greater than 50 mg/L in each case. The MIC in the assay on Candida albicans, against Candida [8], with Candida parapsilosis and with Candida tropicalis was greater than 50 mg/L each time.
For `CCOc1ccc(NC(=S)NNC(=O)c2ccncc2)cc1`, in assay [1], the IC50 is greater than 300 µM. In addition, the MIC against Candida [2], against Candida [3], against Candida [4], against Candida [5], against Candida [6] and against Candida [7] was greater than 50 mg/L in each case. Further, the MIC against Candida albicans, with Candida [8], against Candida parapsilosis and against Candida tropicalis was greater than 50 mg/L each time.
`Cc1ccc(NC(=S)NNC(=O)c2ccncc2)cc1`: in assay [1], the half-inhibitory concentration (IC50) was 229 µM. Moreover, the MIC against Candida [2], against Candida [3], against Candida [4], against Candida [5], with Candida [6] and in the assay on Candida [7] was greater than 50 mg/L throughout. For the same compound, the MIC against Candida albicans, against Candida [8], in the assay with Candida parapsilosis and against Candida tropicalis was greater than 50 mg/L throughout.
In assay [1], `COc1ccccc1N=C(S)NNC(=O)c1ccncc1` displayed an IC50 greater than 300 µM. In addition, the minimum inhibitory concentration (MIC) with Candida [2], against Candida [3], against Candida [4], against Candida [5], in the assay with Candida [6] and with Candida [7] was greater than 50 mg/L throughout. In addition, the MIC against Candida albicans, against Candida [8], with Candida parapsilosis and against Candida tropicalis was greater than 50 mg/L each time.
Regarding `COc1cccc(NC(=S)NNC(=O)c2ccncc2)c1`, the half-inhibitory concentration (IC50) in assay [1] was greater than 300 µM. For the same compound, the minimum inhibitory concentration (MIC) with Candida [2], against Candida [3], with Candida [4], with Candida [5], with Candida [6] and against Candida [7] was greater than 50 mg/L throughout. In addition, the minimum inhibitory concentration (MIC) against Candida albicans, against Candida [8], against Candida parapsilosis and against Candida tropicalis was greater than 50 mg/L in each case.
The compound `O=C(NNC(=S)Nc1ccc([N+](=O)[O-])cc1)c1ccncc1` came in with an IC50 in assay [1] greater than 300 µM. In addition, the MIC with Candida [2], against Candida [3], in the assay on Candida [4], against Candida [5], against Candida [6] and with Candida [7] was greater than 50 mg/L throughout. Also, the MIC in the assay with Candida albicans, against Candida [8], against Candida parapsilosis and in the assay with Candida tropicalis was greater than 50 mg/L throughout.
`O=C(NNC(=S)Nc1ccc(I)cc1)c1ccncc1` had an IC50 in [1] greater than 300 µM. In addition, the MIC against Candida [2] came to 0.39 mg/L (≈ 0.979 µM); against Candida [3], 0.78 mg/L (≈ 1.96 µM); in the assay on Candida [4], 0.19 mg/L (≈ 0.477 µM); in the assay on Candida [5], 1.6 mg/L (≈ 4.02 µM); against Candida [6], 0.09 mg/L (≈ 0.226 µM); against Candida [7], 0.19 mg/L (≈ 0.477 µM). Moreover, the MIC was found to be 0.39 mg/L (≈ 0.979 µM) with Candida albicans, 1.6 mg/L (≈ 4.02 µM) in the assay on Candida [8], 0.19 mg/L (≈ 0.477 µM) against Candida parapsilosis and 0.19 mg/L (≈ 0.477 µM) against Candida tropicalis.
In turn, `COc1ccc(NC(=S)NNC(=O)c2ccncc2)cc1` gave a 50% inhibitory concentration (IC50) in [1] of 47.5 µM. Moreover, the MIC with Candida [2], with Candida [3], in the assay on Candida [4], against Candida [5], in the assay with Candida [6] and in the assay on Candida [7] was greater than 50 mg/L in each case. The minimum inhibitory concentration (MIC) against Candida albicans, with Candida [8], with Candida parapsilosis and in the assay with Candida tropicalis was greater than 50 mg/L throughout.
As to `O=C(NNC(=S)NC1CCCCC1)c1ccncc1`, the IC50 in [1] is greater than 300 µM. Further, the MIC against Candida [2], against Candida [3], with Candida [4], with Candida [5], in the assay with Candida [6] and in the assay with Candida [7] was greater than 50 mg/L in each case. Also, the MIC in the assay with Candida albicans, in the assay on Candida [8], in the assay on Candida parapsilosis and with Candida tropicalis was greater than 50 mg/L in each case.
With `O=C(NNC(=S)Nc1cccc(Cl)c1)c1ccncc1`, in [1], the IC50 is greater than 300 µM. Besides, the MIC with Candida [2] turned out to be 0.09 mg/L (≈ 0.293 µM); in the assay on Candida [3], 6.25 mg/L (≈ 20.4 µM); in the assay with Candida [4], 0.78 mg/L (≈ 2.54 µM); against Candida [5] it was 0.78 mg/L (≈ 2.54 µM); against Candida [6] it was 6.25 mg/L (≈ 20.4 µM); against Candida [7], 0.39 mg/L (≈ 1.27 µM). For the same compound, the MIC with Candida albicans was 0.19 mg/L (≈ 0.619 µM); with Candida [8], 6.25 mg/L (≈ 20.4 µM); in the assay with Candida parapsilosis, 0.78 mg/L (≈ 2.54 µM); in the assay with Candida tropicalis, 1.6 mg/L (≈ 5.22 µM).
In [1], `CCc1cccc(NC(=S)NNC(=O)c2ccncc2)c1` came in with an IC50 greater than 300 µM. The MIC against Candida [2], with Candida [3], against Candida [4], in the assay with Candida [5], with Candida [6] and in the assay with Candida [7] was greater than 50 mg/L throughout. Moreover, the minimal inhibitory concentration (MIC) with Candida albicans, against Candida [8], against Candida parapsilosis and against Candida tropicalis was greater than 50 mg/L each time.
Turning to `Cc1cccc(C)c1NC(=S)NNC(=O)c1ccncc1`, the IC50 in assay [1] is greater than 300 µM. The MIC worked out at 1.6 mg/L (≈ 5.33 µM) against Candida [2]; 6.25 mg/L (≈ 20.8 µM) against Candida [3]; 6.25 mg/L (≈ 20.8 µM) in the assay on Candida [4]; 0.78 mg/L (≈ 2.6 µM) against Candida [5]; 6.25 mg/L (≈ 20.8 µM) with Candida [6]; 12.5 mg/L (≈ 41.6 µM) against Candida [7]. The MIC was found to be 0.78 mg/L (≈ 2.6 µM) in the assay on Candida albicans, 6.25 mg/L (≈ 20.8 µM) with Candida [8], 0.78 mg/L (≈ 2.6 µM) with Candida parapsilosis and 0.78 mg/L (≈ 2.6 µM) against Candida tropicalis.
`O=C(O)c1cn(C2CC2)c2cc(N3CCNCC3)c(F)cc2c1=O` [CIPROFLOXACIN] showed an IC50 in assay [1] greater than 300 µM.
In [1], `Cc1ccccc1N=C(S)NNC(=O)c1ccncc1` registered an IC50 greater than 300 µM. Further, the MIC in the assay on Candida [2], with Candida [3], in the assay on Candida [4], in the assay with Candida [5], in the assay with Candida [6] and against Candida [7] was greater than 50 mg/L each time. The MIC with Candida albicans, in the assay on Candida [8], against Candida parapsilosis and against Candida tropicalis was greater than 50 mg/L each time.
The compound `CC(=O)Nc1ccc(NC(=S)NNC(=O)c2ccncc2)cc1` gave an IC50 in assay [1] greater than 300 µM. The MIC against Candida [2] was 1.6 mg/L (≈ 4.86 µM); against Candida [3], 1.6 mg/L (≈ 4.86 µM); in the assay with Candida [4] it was 1.6 mg/L (≈ 4.86 µM); in the assay with Candida [5] it was 1.6 mg/L (≈ 4.86 µM); in the assay on Candida [6] it was 0.19 mg/L (≈ 0.577 µM); against Candida [7] it was 0.78 mg/L (≈ 2.37 µM). Moreover, the MIC came to 0.39 mg/L (≈ 1.18 µM) with Candida albicans, 1.6 mg/L (≈ 4.86 µM) with Candida [8], 0.19 mg/L (≈ 0.577 µM) in the assay on Candida parapsilosis and 0.19 mg/L (≈ 0.577 µM) in the assay with Candida tropicalis.

Source of the values: ChEMBL document CHEMBL3124853, “Synthesis and anti-Candidal activity of N-(4-aryl/cyclohexyl)-2-(pyridine-4-yl carbonyl) hydrazinecarbothioamide” (Bioorg Med Chem Lett, 2014).
